This note sets out measurements from patent US9988400B2 (Genentech, Inc., priority 2013, dated 2018).

The structures appear in SMILES notation.

This experiment has as its target T1, HEK cells stably transfected with tetracycline inducible hNR1 and hNR2A (Homo sapiens, UniProt Q05586+Q12879).
T1 construct: expressed in transfected cells; host or cells: HEK cells, stably transfected, tetracycline/doxycycline inducible
The experiment can be described thus: Assay 1: Cell-Based Assay, cytosolic calcium response to positive allosteric modulators (with 30 μM glycine and 300 nM L-glutamate, EC30). The conditions noted are these: Table 2; for EC50: cytosolic calcium response, with 30 μM glycine and 300 nM L-glutamate (EC30), — = no plateau was reached; for Max %: responses scaled relative to 100 μM L-glutamate maximal response (100%) and 0 μM L-glutamate (0%). The procedure, abridged: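 Cells induced 24 h with 7.5 μg mL^−1 doxycycline plus 500 μM (+)-ketamine, loaded 60 min at 37 °C with calcium dye in Mg-free HBSS (1.8 mM Ca, probenecid, 10 μM (+)-ketamine, pH 7.15). Peak RFU over 5 min after compound addition, scaled to 100 μM L-glutamate (100%) and 0 μM (0%); four-parameter Hill fit for EC50, max % if no plateau.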

T1 sequence (Q12879 23-1464, other chains not shown): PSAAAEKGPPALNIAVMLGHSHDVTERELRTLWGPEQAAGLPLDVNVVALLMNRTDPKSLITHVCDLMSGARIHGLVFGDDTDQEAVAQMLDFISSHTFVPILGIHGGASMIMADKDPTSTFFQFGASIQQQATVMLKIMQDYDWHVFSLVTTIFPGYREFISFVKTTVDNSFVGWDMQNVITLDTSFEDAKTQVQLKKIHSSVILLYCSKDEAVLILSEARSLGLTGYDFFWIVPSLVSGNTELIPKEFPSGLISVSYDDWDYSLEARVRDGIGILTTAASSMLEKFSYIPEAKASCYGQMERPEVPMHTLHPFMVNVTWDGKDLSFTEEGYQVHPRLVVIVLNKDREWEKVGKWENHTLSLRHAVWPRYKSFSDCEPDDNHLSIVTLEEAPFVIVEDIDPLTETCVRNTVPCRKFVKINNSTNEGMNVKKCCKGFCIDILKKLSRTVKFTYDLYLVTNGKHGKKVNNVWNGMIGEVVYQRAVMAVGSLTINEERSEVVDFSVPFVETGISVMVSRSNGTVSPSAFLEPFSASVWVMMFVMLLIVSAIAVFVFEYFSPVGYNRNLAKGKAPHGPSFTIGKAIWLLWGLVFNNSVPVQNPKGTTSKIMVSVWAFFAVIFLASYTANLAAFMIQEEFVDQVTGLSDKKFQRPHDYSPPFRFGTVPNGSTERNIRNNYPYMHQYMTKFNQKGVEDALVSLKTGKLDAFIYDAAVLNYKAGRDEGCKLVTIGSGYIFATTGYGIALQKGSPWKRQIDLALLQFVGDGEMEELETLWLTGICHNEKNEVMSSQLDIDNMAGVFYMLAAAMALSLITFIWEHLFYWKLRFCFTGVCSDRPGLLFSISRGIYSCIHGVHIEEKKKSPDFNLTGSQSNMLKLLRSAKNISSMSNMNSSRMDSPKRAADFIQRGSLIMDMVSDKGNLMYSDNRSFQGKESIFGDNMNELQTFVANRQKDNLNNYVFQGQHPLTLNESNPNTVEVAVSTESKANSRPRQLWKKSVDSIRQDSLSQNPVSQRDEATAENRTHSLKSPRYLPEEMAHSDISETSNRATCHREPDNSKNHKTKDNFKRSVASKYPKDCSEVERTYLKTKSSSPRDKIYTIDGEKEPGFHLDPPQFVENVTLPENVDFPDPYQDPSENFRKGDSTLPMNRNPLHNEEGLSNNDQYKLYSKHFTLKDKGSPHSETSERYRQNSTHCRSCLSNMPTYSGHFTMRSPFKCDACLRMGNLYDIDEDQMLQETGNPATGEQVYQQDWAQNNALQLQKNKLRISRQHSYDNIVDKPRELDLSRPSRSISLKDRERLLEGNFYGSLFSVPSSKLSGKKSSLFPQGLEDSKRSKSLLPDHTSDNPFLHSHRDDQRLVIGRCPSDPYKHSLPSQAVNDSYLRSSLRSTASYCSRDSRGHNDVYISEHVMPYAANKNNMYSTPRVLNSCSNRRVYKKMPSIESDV

In the case of `CCN(Cc1cc(=O)n2c(CCC(C)(C)O)c(C)sc2n1)c1ccc(F)cc1` [Example 13.9, 7-[[Ethyl(4-fluorophenyl)amino]methyl]-3-(3-hydroxy-3-methylbutyl)-2-methyl-5H-[1,3]thiazolo[3,2-a]pyrimidin-5-one], the EC50 was 5 µM and the Max % came to 166%.
For `CCN(Cc1cc(=O)n2c(C3CC3C(N)=O)c(C)sc2n1)c1ccc(F)cc1` (centres unmarked) [Example 14.1, 2-[7-[(N-ethyl-4-fluoro-anilino)methyl]-2-methyl-5-oxo-thiazolo[3,2-a]pyrimidin-3-yl]cyclopropanecarboxamide], in that order: 2.6 µM and 163%.
The matching figures for `CCN(Cc1cc(=O)n2c(C3CC3C#N)c(C)sc2n1)c1ccc(F)cc1` (centres unmarked) [Example 14.2, 2-(7-[[ethyl(4-fluorophenyl)amino]methyl]-2-methyl-5-oxo-5H-[1,3]thiazolo[3,2-a]pyrimidin-3-yl)cyclopropane-1-carbonitrile]: 0.122 µM and 205%.
The matching figures for `CCc1cc(C(F)(F)F)nn1Cc1cc(=O)n2c(C3CC3CO)c(C)sc2n1` (centres unmarked) [Example 15.1, 7-((5-ethyl-3-(trifluoromethyl)-1H-pyrazol-1-yl)methyl)-3-(2-(hydroxymethyl)cyclopropyl)-2-methyl-5H-thiazolo[3,2-a]pyrimidin-5-one]: 2.2 µM and 144%.
For `Cc1sc2nc(Cn3nc(C4CC4)c(F)c3C(F)(F)F)cc(=O)n2c1C1CC1CO` (stereo not drawn) [Example 15.9, 7-((3-cyclopropyl-4-fluoro-5-(trifluoromethyl)-1H-pyrazol-1-yl)methyl)-3-(trans-2-(hydroxymethyl)cyclopropyl)-2-methyl-5H-thiazolo[3,2-a]pyrimidin-5-one], the EC50 was found to be 18.6 µM and the Max % stood at 117%.
For `Cc1sc2nc(Cn3nc(C(F)(F)F)c(F)c3C3CC3)cc(=O)n2c1C1CC1CO` (stereo not drawn) [Example 15.10, 7-((5-cyclopropyl-4-fluoro-3-(trifluoromethyl)-1H-pyrazol-1-yl)methyl)-3-(trans-2-(hydroxymethyl)cyclopropyl)-2-methyl-5H-thiazolo[3,2-a]pyrimidin-5-one], in that order: 3.1 µM and 133%.
The matching figures for `CC(C)c1sc2nc(Cn3nc(C(F)(F)F)cc3C3CC3)cc(=O)n2c1C1CC1CO` (centres unmarked) [Example 15.24, 7-[[5-cyclopropyl-3-(trifluoromethyl)pyrazol-1-yl]methyl]-3[2-(hydroxymethyl)cyclopropyl]-2-isopropyl-thiazolo[3,2-a]pyrimidin-5-one]: 1.4 µM and 138%.
As to `Cc1sc2nc(Cn3nc(C4CC4)cc3C(F)(F)F)cc(=O)n2c1-c1cncnc1` [Example 15.28, 7-((3-cyclopropyl-5-(trifluoromethyl)-1H-pyrazol-1-yl)methyl)-2-methyl-3-(pyrimidin-5-yl)-5H-thiazolo[3,2-a]pyrimidin-5-one], the Max % came out at 80.8%.
With `Cc1sc2nc(Cn3nc(C(F)(F)F)cc3C3CC3)cc(=O)n2c1-c1cncnc1` [Example 15.29, 7-((5-cyclopropyl-3-(trifluoromethyl)-1H-pyrazol-1-yl)methyl)-2-methyl-3-(pyrimidin-5-yl)-5H-thiazolo[3,2-a]pyrimidin-5-one], the EC50 came out at 7 µM and the Max % came out at 135%.
For `Cc1sc2nc(Cn3nc(C(F)(F)F)cc3C(F)(F)F)cc(=O)n2c1-c1cncnc1` [Example 15.30, 7-((3,5-bis(trifluoromethyl)-1H-pyrazol-1-yl)methyl)-2-methyl-3-(pyrimidin-5-yl)-5H-thiazolo[3,2-a]pyrimidin-5-one], the EC50 was 22 µM and the Max % stood at 116%.
In the case of `Cc1sc2nc(Cn3nccc3C(F)(F)F)cc(=O)n2c1-c1cncnc1` [Example 15.31, 2-methyl-3-(pyrimidin-5-yl)-7-((5-(trifluoromethyl)-1H-pyrazol-1-yl)methyl)-5H-thiazolo[3,2-a]pyrimidin-5-one], the Max % stood at 57.8%.
Still for that read-out and setting: as for `Cc1sc2nc(Cn3nc(C(F)(F)F)cc3C)cc(=O)n2c1-c1cncnc1` [Example 15.32, 2-methyl-7-((5-methyl-3-(trifluoromethyl)-1H-pyrazol-1-yl)methyl)-3-(pyrimidin-5-yl)-5H-thiazolo [3,2-a]pyrimidin-5-one], the figure is 94.8%.
`Cc1cn2c(=O)cc(Cn3nc(C(F)(F)F)cc3C(F)(F)F)nc2s1` [Example 15.33, 7-((3,5-bis(trifluoromethyl)-1H-pyrazol-1-yl)methyl)-2-methyl-5H-thiazolo[3,2-a]pyrimidin-5-one]: the concentration giving a half-maximal response (EC50) was determined as 18.8 µM and the Max % stood at 51.8%.
For `Cc1sc2nc(Cn3ncc4ccccc43)cc(=O)n2c1-c1cncnc1` [Example 15.34, 7-((1H-indazol-1-yl)methyl)-2-methyl-3-(pyrimidin-5-yl)-5H-thiazolo[3,2-a]pyrimidin-5-one], the Max % turned out to be 48.2%.
In the case of `CNC(=O)c1c(C)sc2nc(Cn3nc(C(F)(F)F)cc3C3CC3)cc(=O)n12` [Example 16.1, 7-((5-cyclopropyl-3-(trifluoromethyl)-1H-pyrazol-1-yl)methyl)-N,2-dimethyl-5-oxo-5H-thiazolo[3,2-a]pyrimidine-3-carboxamide], the EC50 was determined as 2.3 µM and the Max % is given as 140%.
The matching figures for `CNC(=O)c1c(C)sc2nc(Cn3nc(C4CC4)cc3C(F)(F)F)cc(=O)n12` [Example 16.2, 7-((3-cyclopropyl-5-(trifluoromethyl)-1H-pyrazol-1-yl)methyl)-N,2-dimethyl-5-oxo-5H-thiazolo[3,2-a]pyrimidine-3-carboxamide]: 11.7 µM and 110%.
For `CCNC(=O)c1c(C(F)(F)F)sc2nc(Cn3nc(C(F)(F)F)cc3C3CC3)cc(=O)n12` [Example 16.3, 7-((5-cyclopropyl-3-(trifluoromethyl)-1H-pyrazol-1-yl)methyl)-N-ethyl-5-oxo-2-(trifluoromethyl)-5H-thiazolo[3,2-a]pyrimidine-3-carboxamide], in that order: 1.4 µM and 160%.
The matching figures for `CCNC(=O)c1c(C(F)(F)F)sc2nc(Cn3nc(C4CC4)cc3C(F)(F)F)cc(=O)n12` [Example 16.4, 7-((3-cyclopropyl-5-(trifluoromethyl)-1H-pyrazol-1-yl)methyl)-N-ethyl-5-oxo-2-(trifluoromethyl)-5H-thiazolo[3,2-a]pyrimidine-3-carboxamide]: 9.2 µM and 130%.
Turning to `CCNC(=O)c1csc2nc(Cn3nc(C(F)(F)F)cc3C3CC3)cc(=O)n12` [Example 16.5, 7-((5-cyclopropyl-3-(trifluoromethyl)-1H-pyrazol-1-yl)methyl)-N-ethyl-5-oxo-5H-thiazolo[3,2-a]pyrimidine-3-carboxamide], the half-maximal effective concentration (EC50) turned out to be 10.6 µM and the Max % turned out to be 149%.
The matching figures for `CCNC(=O)c1c(C2CC2)sc2nc(Cn3nc(C(F)(F)F)cc3C3CC3)cc(=O)n12` [Example 16.6, 2-cyclopropyl-7-((5-cyclopropyl-3-(trifluoromethyl)-1H-pyrazol-1-yl)methyl)-N-ethyl-5-oxo-5H-thiazolo[3,2-a]pyrimidine-3-carboxamide]: 5.5 µM and 140%.
For `CCNC(=O)c1c(C2CC2)sc2nc(Cn3nc(C4CC4)cc3C(F)(F)F)cc(=O)n12` [Example 16.7, 2-cyclopropyl-7-((3-cyclopropyl-5-(trifluoromethyl)-1H-pyrazol-1-yl)methyl)-N-ethyl-5-oxo-5H-thiazolo[3,2-a]pyrimidine-3-carboxamide], in that order: 36.2 µM and 67.5%.
Take `Cc1sc2nc(Cn3ccc(C(F)(F)F)n3)cc(=O)n2c1C#N` [Example 17.1, 2-methyl-5-oxo-7-((3-(trifluoromethyl)-1H-pyrazol-1-yl)methyl)-5H-thiazolo[3,2-a]pyrimidine-3-carbonitrile]: the Max % is 107%.
In the case of `Cc1sc2nc(Cn3nc(C(F)(F)F)cc3C3CC3)cc(=O)n2c1C#N` [Example 17.2, 7-((5-cyclopropyl-3-(trifluoromethyl)-1H-pyrazol-1-yl)methyl)-2-methyl-5-oxo-5H-thiazolo[3,2-a]pyrimidine-3-carbonitrile], the EC50 is 2 µM and the Max % was found to be 119%.
Regarding `Cc1sc2nc(Cn3nc(C4CC4)cc3C(F)(F)F)cc(=O)n2c1C#N` [Example 17.3, 7-((3-cyclopropyl-5-(trifluoromethyl)-1H-pyrazol-1-yl)methyl)-2-methyl-5-oxo-5H-thiazolo[3,2-a]pyrimidine-3-carbonitrile], the Max % worked out at 104%.
Take `Cc1sc2nc(Cn3ccc(C(F)(F)F)n3)cc(=O)n2c1C(C)O` (centres unmarked) [Example 18.1, 3-(1-hydroxyethyl)-2-methyl-7-((3-(trifluoromethyl)-1H-pyrazol-1-yl)methyl)-5H-thiazolo[3,2-a]pyrimidin-5-one]: the Max % was 94.8%.
On to `CC(=O)c1c(C)sc2nc(Cn3nc(C(F)(F)F)cc3C3CC3)cc(=O)n12` [Example 18.2, 3-acetyl-7-((5-cyclopropyl-3-(trifluoromethyl)-1H-pyrazol-1-yl)methyl)-2-methyl-5H-thiazolo[3,2-a]pyrimidin-5-one], for which the 50% effective concentration (EC50) worked out at 2.2 µM and the Max % turned out to be 144%.
Turning to `CC(=O)c1c(C)sc2nc(Cn3nc(C4CC4)cc3C(F)(F)F)cc(=O)n12` [Example 18.3, 3-acetyl-7-((3-cyclopropyl-5-(trifluoromethyl)-1H-pyrazol-1-yl)methyl)-2-methyl-5H-thiazolo[3,2-a]pyrimidin-5-one], the concentration giving a half-maximal response (EC50) came out at 25.4 µM and the Max % is reported as 129%.
